# Test results taken from patent publication US11707471B2, “ENPP1 inhibitors and their use for the treatment of cancer” (The Board of Trustees of the Leland Stanford Junior …, priority 2017, dated 2023).
# Tested on: 4T1 tumor
# Experiment: 4T1 tumor model: ENPP1 inhibition with IR, cGAMP and anti-CTLA-4
# Assay type: in vivo, mouse
# Details: 20 Gy IR then intratumoral 10 μg cGAMP on day 2, 4, 7
smiles,measurement,value
"Nc1nc2c(ncn2[C@@H]2O[C@@H]3COP(=O)(O)O[C@H]4[C@@H](O)[C@H](n5cnc6c(N)ncnc65)O[C@@H]4COP(=O)(O)O[C@@H]2[C@@H]3O)c(=O)[nH]1 [cGAMP, cyclic guanosine monophosphate-adenosine monophosphate]",effect over IR treatment,had no effect over IR treatment
